Measurements: patent US4117117A, “Tridecapetide having gastrin effect” (Max Planck-Gesellschaft zur Forderung der Wissenschaften, priority 1976, dated 1978)

Experiments:
[1] = tested on: secretion activity of the stomach and of the pancreas; assay: gastrin activity (stimulation of the secretion activity of the stomach and of the pancreas)
[2] = stability compared to natural minigastrin; details: as compared to the natural minigastrin

## L-leucyl-L-glutamyl-L-glutamyl-L-glutamyl-L-glutamyl-L-glutamyl-L-ananyl-L-tyrosyl-glycyl-L-tryptophyl-L-leucyl-L-asparagyl-L-phenylalanineamide [11-leucine-minigastrin]
[1]
  gastrin activity: satisfactory
[1]; just like naturally-occurring gastrin
  stimulation of the secretion activity of the stomach and of the pancreas: causes stimulation
[2]
  stability: improved stability
